# Experimental data: patent publication US20240285596A1, “SOLID DOSAGE FORMS AND DOSING REGIMENS COMPRISING (2R,3S,4S,5R)-4-[[3-(3,4-DIFLUORO-2-METHOXY-PHENYL)-4,5-DIMETHYL-5-(TRIFLUOROMETHYL) TETRAHYDROFURAN-2-CARBONYL]AMINO]PYRIDINE-2-CARBOXAMIDE” (VERTEX PHARMACEUTICALS INCORPORATED, priority 2021, published 2024)
# Tests used:
# human NaV 1.8 = human NaV 1.8 (Homo sapiens, UniProt Q9Y5Y9); experiment: E-VIPR assay detecting and measuring NaV inhibition properties; format: cell-based; conditions: HEK cells expressing a truncated form of human NaV 1.8; E-VIPR membrane potential readout
# human NaV 1.8, sequence (Q9Y5Y9 126-1722 limits assumed): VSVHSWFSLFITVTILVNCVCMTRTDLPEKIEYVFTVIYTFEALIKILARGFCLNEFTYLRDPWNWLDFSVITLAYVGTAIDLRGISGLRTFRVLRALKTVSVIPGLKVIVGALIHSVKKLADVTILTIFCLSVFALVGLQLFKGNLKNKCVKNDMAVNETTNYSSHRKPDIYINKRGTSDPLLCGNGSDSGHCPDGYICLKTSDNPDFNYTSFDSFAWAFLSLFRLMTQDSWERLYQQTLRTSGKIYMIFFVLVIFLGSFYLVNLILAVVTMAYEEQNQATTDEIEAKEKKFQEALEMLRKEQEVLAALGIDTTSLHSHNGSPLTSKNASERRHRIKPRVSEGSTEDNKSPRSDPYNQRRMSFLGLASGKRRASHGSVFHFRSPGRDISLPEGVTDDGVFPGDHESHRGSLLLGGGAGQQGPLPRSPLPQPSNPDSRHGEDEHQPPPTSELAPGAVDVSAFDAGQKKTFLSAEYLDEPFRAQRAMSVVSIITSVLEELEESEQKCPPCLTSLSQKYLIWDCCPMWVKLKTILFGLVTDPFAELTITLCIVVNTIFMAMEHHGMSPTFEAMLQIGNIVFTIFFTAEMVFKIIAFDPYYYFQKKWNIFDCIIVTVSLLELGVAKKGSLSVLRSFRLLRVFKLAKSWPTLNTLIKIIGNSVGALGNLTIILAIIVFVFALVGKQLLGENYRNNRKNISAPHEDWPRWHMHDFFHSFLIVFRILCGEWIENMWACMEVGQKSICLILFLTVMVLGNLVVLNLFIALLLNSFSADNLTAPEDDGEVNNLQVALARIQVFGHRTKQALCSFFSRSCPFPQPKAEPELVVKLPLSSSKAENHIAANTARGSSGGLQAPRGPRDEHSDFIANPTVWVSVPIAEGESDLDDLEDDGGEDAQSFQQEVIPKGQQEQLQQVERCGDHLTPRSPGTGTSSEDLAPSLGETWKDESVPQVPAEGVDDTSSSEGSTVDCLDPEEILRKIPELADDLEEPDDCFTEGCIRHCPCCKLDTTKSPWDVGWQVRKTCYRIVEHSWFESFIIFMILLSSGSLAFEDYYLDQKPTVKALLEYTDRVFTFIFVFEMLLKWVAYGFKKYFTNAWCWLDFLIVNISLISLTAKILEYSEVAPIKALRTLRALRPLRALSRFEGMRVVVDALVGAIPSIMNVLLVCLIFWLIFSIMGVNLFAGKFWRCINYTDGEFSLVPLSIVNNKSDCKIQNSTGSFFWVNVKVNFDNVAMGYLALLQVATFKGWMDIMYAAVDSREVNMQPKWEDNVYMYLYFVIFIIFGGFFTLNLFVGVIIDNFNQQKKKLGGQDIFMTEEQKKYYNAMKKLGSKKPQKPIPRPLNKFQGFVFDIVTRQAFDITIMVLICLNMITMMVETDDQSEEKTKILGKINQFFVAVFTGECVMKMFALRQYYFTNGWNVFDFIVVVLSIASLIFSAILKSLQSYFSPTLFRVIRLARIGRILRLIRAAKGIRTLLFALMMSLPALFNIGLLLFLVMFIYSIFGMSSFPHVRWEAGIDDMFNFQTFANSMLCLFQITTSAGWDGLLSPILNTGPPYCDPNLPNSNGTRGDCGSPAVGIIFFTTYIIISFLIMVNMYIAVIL
# Text: Sodium ion channels are voltage-dependent proteins that can be activated by inducing membrane voltage changes by applying electric fields. The electrical stimulation instrument and methods of use, referred to as E-VIPR, are described in International Publication No. WO 2002/008748 A3 and C.-J. Huang et al. Characterization of voltage-gated sodium channel blockers by electrical stimulation and fluorescence detection of membrane potential, 24 Nature Biotech. 439-46 (2006), both of which are incorporated by reference in their entirety. The instrument comprises a microtiter plate handler, an optical system for exciting the coumarin dye while simultaneously recording the coumarin and oxonol emissions, a waveform generator, a current- or voltage-controlled amplifier, and parallel electrode pairs that are inserted into assay plate wells. […]
# 5 mM DiSBAC6(3), a voltage sensitive oxonol acceptor (CAS number 169211-44-3; 5-[3-(1,3-dihexylhexahydro-4,6-dioxo-2-thioxo-5-pyrimidinyl)-2-propen-1-ylidene]-1,3-dihexyldihydro-2-thioxo-4,6(1H,5H)-pyrimidinedione), in dry DMSO. The preparation of DiSBAC6(3) is analogous to that of DiSBAC4(3) as described in Voltage Sensing by Fluorescence Resonance Energy Transfer in Single Cells, Gonzalez, J. E. and Tsien, R. Y. (1995) Biophys. […]
# [1] = system: patients undergoing abdominoplasty; experiment: Study in patients undergoing abdominoplasty (NCT05034952); format: in vivo, human
# [2] = system: subjects with pain following bunionectomy; experiment: Randomized, double-blind, placebo-controlled study of efficacy and safety in subjects with pain following bunionectomy; conditions: for Mean SPID48: oral, NPRS 0-48 h
# Text: Bunionectomy is a well-established, multi-dose, surgical, acute pain model. A randomized, double-blind study design was used to avoid observer bias and reduce symptoms or outcomes arising from the subjects' knowledge of treatment.
# Male and female patients between the ages of 18 and 75 years (inclusive) with pain that is ≥4 on an 11-point Numeric Pain Rating Scale (NPRS) and is moderate or severe on the Verbal Categorical Rating Scale (VRS) after bunionectomy are included in the study.
# The investigational drug was administered orally in 10 mg tablets. […] The investigational drug was administered every 12 hours (q12 h). A low, mid, and high dosing regime were tested. The first dose in the low dosing regime was 20 mg, and the subsequent doses were 10 mg g12 h. The first dose in the mid dosing regime was 60 mg, and the subsequent doses were 30 mg g12 h. The first dose in the high dosing regime was 100 mg, and the subsequent doses were 50 mg g12 h.
# After a screening period, subjects receive a primary unilateral first metatarsal bunionectomy repair on Day minus one under regional anesthesia (Mayo and popliteal block). A continuous popliteal sciatic block infusion (0.2% ropivacaine) is started after surgery, and remains in place until approximately 3 AM on Day 1. After removal of the popliteal sciatic block, each subject is randomized when the subject requests the first dose of study drug for pain relief and reports pain ≥4 on the NPRS and moderate or severe pain on the VRS.
# Randomization was stratified by site and baseline NPRS (<8 versus ≥8). To maintain the blind, all subjects receive the same number of capsules in a double-dummy design.
# HB/APAP placebo capsules were administered every 6 hours (q6 h).
# The final dose of HB/APAP was given 42 hours after the first dose.
# 11-point (0 to 10) Numeric Pain Rating Scale: NPRS scores are frequently used in bunionectomy studies and are recognized by the FDA as a valid pain intensity measure. On the 11-point NPRS, a score of 0 denotes no pain, and a score of 10 denotes the worst pain intensity imaginable. Subjects reported their pain on the 11-point NPRS immediately before their first dose of the study drug (baseline NPRS score) and at intervals over 48 hour period (i.e. 0.5, 1, 1.5, 2, 3, 4, 5, 6, 8, 12, 16, 20, 24, 28, 32, 36, 40, 44, and 48 hours (±5 minutes)) after the first dose of the study drug. Pain intensity is also recorded on the NPRS immediately before each administration of rescue medication. Pain intensity scores that are collected within 4 hours after a dose of rescue medication are deemed missing, and the missing values are imputed as the intensity recorded immediately before the administration of rescue medication.
# SPID-48 is the sum of the pain intensity difference (PID) over the 48 hour time period. A pain intensity score of 0 (no pain) to 10 (worse possible pain) is obtained before starting the study and throughout the 48 time period. The pain score at each assessment time is subtracted from the baseline pain score to provide the total sum score or SPID-48. A higher SPID-48 is better and indicates a reduction in pain intensity compared to the baseline score.
# 4-point Verbal Categorical Rating Scale: Subjects report their pain on the 4-point VRS (none, mild, moderate, or severe) immediately before their first dose of the study drug (baseline VRS).
# Safety evaluations include adverse events, clinical laboratory assessments, clinical evaluation of vital signs, electrocardiograms, and physical examinations.
# [3] = High-dose: 100 mg first dose/50 mg every 12 hours, n = 60
# [4] = Low-dose: 20 mg first dose/10 mg every 12 hours, n = 33
# [5] = Mid-dose: 60 mg first dose/30 mg every 12 hours, n = 62
structure (smiles),measurement,setting,value
"COc1c([C@H]2[C@H](C(=O)Nc3ccnc(C(N)=O)c3)O[C@@](C)(C(F)(F)F)[C@H]2C)ccc(F)c1F (single isomer, unassigned) [Compound 1]",IC50,human NaV 1.8,< 10 nM
same,"SPID48, in words",[1],statistically significant improvement
same,Mean SPID48,[2]; [3],137.8
same,Mean SPID48 difference from placebo,[2]; [3],36.8
same,Mean SPID48,[2]; [4],112.9
same,Mean SPID48 difference from placebo,[2]; [4],11.9
same,Mean SPID48,[2]; [5],86.9
same,Mean SPID48 difference from placebo,[2]; [5],−14.1
same,Onset of action,[2]; bunionectomy study,rapid and was sustained through the duration of assessment
same,"SPID48 compared to placebo (primary endpoint), in words","[2]; high dose, recorded on NPRS",statistically significant improvement
